Laboratory results from patent US20100086623A1, “Chemical Combination for the Generation of Disinfectant and Heat” (priority 2004, published 2010).

Test system: Staphylococcus aureus
Assay: Destruction of S. aureus cultures by aqueous chlorine dioxide solutions (plate counts)
Type: cell-based
Experimental: In this test, S. aureus cells were suspended in Butterfield's phosphate buffer diluent with a pH of 7.2. The density of each of these robust collections of S. aureus suspensions was approximately 10^7 colony-forming-units per mL (10^7 CFU/mL). […] Cell counts were made on samples recovered on Baird-Parker Agar with EY-Tellurite and incubated at 35° C. for 48 hours. […] In these test results, S. aureus survival was detected only at the most dilute chlorine dioxide solutions (0.044 ppm). […] This observation is consistent with lethality of chemical agents for destroying microorganisms being the mathematical product of the concentration of the lethal agent (C) and the time (t) of exposure, (C×t).

In the case of `[O][Cl+][O-]` [chlorine dioxide], the “inactivation of the pathogens” value (0.044 ppm chlorine dioxide solution, exposure 24 hours) is reported as 100%, the survivors ([ClO2] 0.044 ppm, 30° C., 3-5 min exposure) is reported as 3.4% survivors and the “CFU/mL × 10^−6” value ([ClO2] 0.044 ppm, 30° C., 3-5 min exposure, control 3.4) is reported as 0.116 CFU/mL × 10^−6. The “CFU/mL × 10^−6” value ([ClO2] 0.044 ppm, exposure for 24 h) was 0.00 CFU/mL × 10^−6, the “CFU/mL × 10^−6” value ([ClO2] 0.044 ppm, exposure over night) was <1.0 × 10^−4 CFU/mL × 10^−6 and the “CFU/mL × 10^−6” value ([ClO2] 0.44 ppm, 30° C., 3-5 min exposure, control 9.55) was 0 CFU/mL × 10^−6. For the same compound, the “CFU/mL × 10^−6” value ([ClO2] 4.4 ppm, 30° C., 3-5 min exposure, control 3.4) was 0.00 CFU/mL × 10^−6 and the “CFU/mL × 10^−6” value ([ClO2] 44 ppm, 30° C., 3-5 min exposure, control 9.55) was 0.00 CFU/mL × 10^−6.
